Read-outs that look alike come from different tables or passages of the source.
Assays:
[1] = test system: methacholine induced coronary spasm; test: Coronary dilating activity: antagonism of methacholine induced coronary spasm in anesthetized normotensive rats; format: in vivo; conditions: Rattus norvegicus, iv, i.v. infusion in water:dimethylformamide 9:1, normalization of ECG during methacholine infusion
Protocol: Coronary dilating activity was evaluated in anesthetized normotensive rats (weighing about 500 g), as the ability to antagonize methacholine induced coronary spasm. Rats were instrumented for methacholine infusion into the coronary ostium, while spastic activity was detected as ST segment elevation in D2 ECG recording [K. Sakai et al., J. Pharm. Meth., 5, 325 (1981)].
The compounds tested by i.v. infusion were dissolved in water: dimethylformamide (9:1 by volume). Activity was detected as normalization of ECG tracing after compounds administration during methacholine infusion.

hypertensive rats (SHR) = test: Antihypertensive activity in male hypertensive rats (SHR), systolic blood pressure by indirect tail-cuff method; format: in vivo, rat (SHR, Wister-Kyoto strain); conditions: 0.5% methylcellulose, systolic blood pressure measured 1, 3, 5 and 7 hours after administration; for ED25: Rattus norvegicus, po, read-out: ED25 SHR os (antihypertensive activity); for ED25 SHR os (antihypertensive activity): oral
Protocol: The antihypertensive activity of the diesters according to the invention was evaluated in male hypertensive rats (SHR, Wister-Kyoto strain, 15-25 weeks old). The determination of blood pressure was performed by an indirect method [M. Gerald et al., Arzneim. Forsch., 18, 1825 (1968)]. The animals were prewarmed in a heating chamber at a temperature of from 35° C. to 37° C. for a period of 15 minutes before pressure determination. The compounds tested by oral route were dissolved or suspended in a 0.5% methylcellulose solution. Controls were given only the vehicle. Systolic blood pressure and heart rate were measured 1, 3, 5 and 7 hours after drug administration by means of a tail-cuff and a pulse transducer.

[2] = LD50 determined in the mouse, i.p. and per os (Weil method); format: in vivo; conditions: in vivo
Protocol: (§1) The LD50 of the compounds according to the invention was determined in the mouse, both i.p. and per os, according to the method described by C. S. Weil [Biometrics, 8, 249 (1952)].

mouse = test: as above; format: in vivo; conditions: for LD50 os: per os
Protocol: as §1

| SMILES | ED50 [1] [mg/kg] | ED25 (hypertensive rats (SHR)) [mg/kg] | LD50 ([2]; ip, read-out: LD50 i.p.) [mg/kg] | LD50 ([2]; po, per os, read-out: LD50 os) [mg/kg] | ED25 SHR os (antihypertensive activity) (hypertensive rats (SHR)) [mg/kg] | LD50 i.p. (mouse) [mg/kg] | LD50 os (mouse) [mg/kg] |
| --- | --- | --- | --- | --- | --- | --- | --- |
| COC(=O)C1=C(C)NC(C)=C(C(=O)OCCCN(C)CCC(c2ccccc2)c2ccccc2)C1c1cccc([N+](=O)[O-])c1 (stereo not drawn) [compound 2263, methyl N-(3,3-diphenylpropyl)-N-methyl-3-aminopropyl 1,4-dihydro-2,6-dimethyl-4-(3-nitrophenyl)-pyridine-3,5-dicarboxylate] | 0.197 | 3.4 | 171 | 254 | – | – | – |
| COC(=O)C1=C(C)NC(C)=C(C(=O)OCCNCCC(c2ccccc2)c2ccccc2)C1c1cccc([N+](=O)[O-])c1 (stereo not drawn) [compound 2279, methyl N-(3,3-diphenylpropyl)-2-amino-ethyl 1,4-dihydro-2,6-dimethyl-4-(3-nitrophenyl)-pyridine-3,5-dicarboxylate] | 0.297 | 7.3 | 121 | 279 | – | – | – |
| COC(=O)C1=C(C)NC(C)=C(C(=O)OC(C)CN(C)CCC(c2ccccc2)c2ccccc2)C1c1cccc([N+](=O)[O-])c1 (stereo not drawn) [compound 2288, methyl 1, N-dimethyl-N-(3,3-diphenylpropyl)-2-aminoethyl 1,4-dihydro-2,6-dimethyl-4-(3-nitrophenyl)-pyridine-3,5-dicarboxylate] | 0.046 | 1.5 | 72 | 197 | – | – | – |
| CC1=C(C(=O)OCCN(C)CCC(c2ccccc2)c2ccccc2)C(c2cccc([N+](=O)[O-])c2)C(C(=O)OCC(C)C)=C(C)N1 (stereo not drawn) [compound 2329, isobutyl N-(3,3-diphenylpropyl)-N-methyl-2-aminoethyl 1,4-dihydro-2,6-dimethyl-4-(3-nitrophenyl)-pyridine-3,5-dicarboxylate] | – | – | – | – | 3.4 | 63 | 401 |
| CC1=C(C(=O)OCCN(C)CCC(c2ccccc2)c2ccccc2)C(c2cccc([N+](=O)[O-])c2)C(C(=O)OC(C)C)=C(C)N1 (stereo not drawn) [compound 2350, isopropyl N-(3,3-diphenylpropyl)-N-methyl-2-aminoethyl 1,4-dihydro-2,6-dimethyl-4-(3-nitrophenyl)-pyridine-3,5-dicarboxylate] | – | 3 | 50 | 116 | – | – | – |
| CC1=C(C(=O)OCCN(C)CCC(c2ccccc2)c2ccccc2)C(c2cccc([N+](=O)[O-])c2)C(C(=O)OCC(C)C)=C(C)N1 (stereo not drawn) [compound 2352, isobutyl N-(3,3-diphenylpropyl)-N-methyl-2-aminoethyl 1,4-dihydro-2,6-dimethyl-4-(3-nitrophenyl)-pyridine-3,5-dicarboxylate] | – | – | – | – | 6.9 | 222 | 2195 |
| COC(=O)C1=C(C)NC(C)=C(C(=O)OCCCCN(C)CCC(c2ccccc2)c2ccccc2)C1c1cccc([N+](=O)[O-])c1 (stereo not drawn) [compound 2361, methyl N-(3,3-diphenylpropyl)-N-methyl-4-aminobutyl 1,4-dihydro-2,6-dimethyl-4-(3-nitrophenyl)-pyridine-3,5-dicarboxylate] | – | 7.2 | 99 | 493 | – | – | – |
| COC(=O)C1=C(C)NC(C)=C(C(=O)OC(C)(C)CN(C)CCC(c2ccccc2)c2ccccc2)C1c1cccc([N+](=O)[O-])c1 (stereo not drawn) [compound 2375, methyl 1,1,N-trimethyl-N-(3,3-diphenylpropyl)-2-aminoethyl 1,4-dihydro-2,6-dimethyl-4-(3-nitrophenyl)-pyridine-3,5-dicarboxylate] | 0.082 | 2.6 | 83 | 657 | – | – | – |
| CC1=C(C(=O)OCC(C)C)C(c2cccc(Cl)c2Cl)C(C(=O)OC(C)CN(C)CCC(c2ccccc2)c2ccccc2)=C(C)N1 (stereo not drawn) [compound 2383, isobutyl 1,N-dimethyl-N-(3,3-diphenylpropyl)-2-aminoethyl 1,4-dihydro-2,6-dimethyl-4-(2,3-dichlorophenyl)-pyridine-3,5-dicarboxylate] | – | 3.4 | – | 500 | – | – | – |

Reference: patent publication US4705797A, “N-(3,3-diphenylpropyl) aminoethyl esters of 1,4-dihydro-2,6-dimethyl-pyridine-3,5-dicarboxylic acid, compositions and use” (Recordati S.A., Chemical and Pharmaceutical Company, priority 1984, dated 1987)
